Test results as given in US20260078103A1, “ISOQUINOLONES AS PI3K INHIBITORS” (OnKure, Inc., priority 2022, published 2026).
pEC50, pIC50: −log10 of the molar value. Where two headings read alike, the source gives them in different places.

Experiments:
Type in all cases: cell-based
[1] = test system: SKBR3 cells express WT PI3Ka; experiment: In vitro cell proliferation, SKBR3 cells (CellTiter-Glo); conditions: inhibition of proliferation
Summary of the method: (§1)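 1,500 cells/well seeded onto pre-stamped 10-pt dilution plates; T47D in RPMI + 10% FBS + insulin 0.2 units/mL, SKBR3 in McCoys 5a + 10% FBS. 72 h, 37 °C, 5% CO2. CTG readout. 0% = 0.1% DMSO, 100% = 10 uM Alpelisib; sigmoidal fit gives EC50.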

[2] = test system: phosphorylation of AKT (pAKT) in SKBR3 cells express WT PI3Ka; experiment: In vitro cell pAKT (Ser473) HTRF, SKBR3 cells; conditions: cellular pAKT
Summary of the method: (§2)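 T47D cells (RPMI, 10% FBS, 0.2 units/mL insulin) or SKBR3 cells (McCoy's 5a, 10% FBS) were seeded onto 10-point compound dilutions and incubated 6 h at 37 °C. After lysis, pAKT was detected overnight by HTRF (Eu cryptate/d2). IC50 was fitted from % inhibition relative to 0.1% DMSO and 10 uM alpelisib controls.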

[3] = test system: T47D cells expressing mutant PI3Ka (H1047R); experiment: In vitro cell proliferation, T47D cells (CellTiter-Glo); conditions: inhibition of proliferation, read-out: Avg T-47D EC50
Summary of the method: as §1

[4] = test system: phosphorylation of AKT (pAKT) in T47D cells expressing mutant PI3Ka (H1047R); experiment: In vitro cell pAKT (Ser473) HTRF, T47D cells; conditions: cellular pAKT, T47D cells, mutant PI3Ka (H1047R), 6 hours, read-out: Avg T-47D IC50
Summary of the method: as §2

Row | Compound | pEC50 ([1]; Homo sapiens, SK-BR-3, 72 h) | pIC50 ([2]; Homo sapiens, SK-BR-3, 6 h) | pEC50 ([3]; Homo sapiens, T47D, 72 h) | pIC50 ([4]; Homo sapiens, T47D, 6 h) | pEC50 ([1]; 72 hours) | pIC50 ([2]; 6 hours) | pEC50 ([3]; 72 hours) | pIC50 [4]
1 | C[C@@H](Nc1ccccc1C(=O)O)c1cc(F)cc2c(=O)n(C)c(-c3cnc(OC4CC4)s3)cc12 [Example 345] | < 4.82 | < 4.82 | 6.30 to 9.00 | 6.30 to 9.00 |  |  |  | 
2 | COC(C)(C)c1ncc(-c2cc3c([C@@H](C)Nc4cccc(F)c4C(=O)O)cc(C)cc3c(=O)n2C)cc1F [Example 346] | < 4.82 | < 4.82 | 6.30 to 9.00 | 6.30 to 9.00 |  |  |  | 
3 | CCOc1ncc(-c2cc3c([C@@H](C)Nc4cccc(F)c4C(=O)O)cc(C)cc3c(=O)n2C)s1 [Example 347] | < 4.82 | < 4.82 | 6.30 to 9.00 | 6.30 to 9.00 |  |  |  | 
4 | Cc1cc([C@@H](C)Nc2ccccc2C(=O)O)c2cc(-c3cnc(CC(F)(F)F)nc3)n(C)c(=O)c2c1 [Example 348] | < 4.82 | < 4.82 | 6.30 to 9.00 | 6.30 to 9.00 |  |  |  | 
5 | CCOc1ncc(-c2cc3c([C@@H](C)Nc4ccccc4C(=O)O)cc(F)cc3c(=O)n2C)s1 [Example 349] | < 4.82 | < 4.82 | 6.30 to 9.00 | 6.30 to 9.00 |  |  |  | 
6 | CCON1CCN(c2cc3c([C@@H](C)Nc4cccc(F)c4C(=O)O)cc(C)cc3c(=O)n2C)CC1 [Example 350] | < 4.82 | < 4.82 | 6.30 to 9.00 | 6.30 to 9.00 |  |  |  | 
7 | Cc1cc([C@@H](C)Nc2cccc(F)c2C(=O)O)c2cc(-c3ccc(OC4CC4)nc3)n(C)c(=O)c2c1 [Example 351] | < 4.82 | < 4.82 | 6.30 to 9.00 | 6.30 to 9.00 |  |  |  | 
8 | Cc1cc([C@@H](C)Nc2cccc(F)c2C(=O)O)c2cc(N3CCN(c4ccc(C)nc4)CC3)n(C)c(=O)c2c1 [Example 352] | 4.82 to 5.70 | 4.82 to 5.70 | 6.30 to 9.00 | 6.30 to 9.00 |  |  |  | 
9 | Cc1ccc(N2CCN(c3cc4c([C@@H](C)Nc5ccccc5C(=O)O)cc(F)cc4c(=O)n3C)CC2)cn1 [Example 353] | 4.82 to 5.70 | 5.70 to 6.30 | 6.30 to 9.00 | 6.30 to 9.00 |  |  |  | 
10 | Cc1cc(C(C)Nc2cccc(C#N)c2C(=O)O)c2cc(N3CCN(CC(F)(F)F)CC3)n(C)c(=O)c2c1 (stereo not shown) [Example 354] |  |  |  |  | < 4.82 | < 4.82 | 4.82 to 5.70 | 4.82 to 5.70
11 | Cc1ccc(N2CCN(c3cc4c([C@@H](C)Nc5cccc(F)c5C(=O)O)cc(F)cc4c(=O)n3C)CC2)cn1 [Example 362] | 4.82 to 5.70 | 4.82 to 5.70 | 6.30 to 9.00 | 6.30 to 9.00 |  |  |  | 
12 | CCOc1ncc(-c2cc3c([C@@H](C)Nc4cccc(F)c4C(=O)O)cc(F)cc3c(=O)n2C)s1 [Example 363] | < 4.82 | < 4.82 | 6.30 to 9.00 | 6.30 to 9.00 |  |  |  | 
13 | Cc1cc([C@@H](C)Nc2ccccc2C(=O)O)c2cc(N3CCN(c4cnc(C)s4)CC3)n(C)c(=O)c2c1 [Example 364] | 4.82 to 5.70 | 5.70 to 6.30 | 6.30 to 9.00 | 6.30 to 9.00 |  |  |  | 
14 | Cc1cc([C@@H](C)Nc2ccccc2C(=O)O)c2cc(-c3cc(F)c4nn(C)cc4c3)n(C)c(=O)c2c1 [Example 365] |  |  |  |  | < 4.82 | < 4.82 | 6.30 to 9.00 | 6.30 to 9.00
15 | Cc1cc([C@@H](C)Nc2ccccc2C(=O)O)c2cc(-c3cc(F)c4c(cnn4C)c3)n(C)c(=O)c2c1 [Example 366] | 4.82 to 5.70 | 4.82 to 5.70 | 6.30 to 9.00 | 6.30 to 9.00 |  |  |  | 
16 | Cc1cc([C@@H](C)Nc2ccccc2C(=O)O)c2cc(N3CCN(c4cnc(C)c(F)c4)CC3)n(C)c(=O)c2c1 [Example 367] |  |  |  |  | 4.82 to 5.70 | 4.82 to 5.70 | 6.30 to 9.00 | 6.30 to 9.00
17 | Cc1cc([C@@H](C)Nc2ccccc2C(=O)O)c2cc(-c3cnc(CF)nc3)n(C)c(=O)c2c1 [Example 369] | < 4.82 | < 4.82 | 6.30 to 9.00 | 6.30 to 9.00 |  |  |  | 
18 | Cc1cc([C@@H](C)Nc2cccc(F)c2C(=O)O)c2cc(-c3cnc(C(F)(F)F)nc3)n(C)c(=O)c2c1 [Example 371] |  |  |  |  | < 4.82 | < 4.82 | 5.70 to 6.30 | 5.70 to 6.30
19 | C[C@@H](Nc1cccc(F)c1C(=O)O)c1cc(F)cc2c(=O)n(C)c(-c3cnc(C(F)(F)F)nc3)cc12 [Example 372] |  |  |  |  | < 4.82 | < 4.82 | 4.82 to 5.70 | 4.82 to 5.70
20 | C#Cc1ccc(N[C@H](C)c2cc(C)cc3c(=O)n(C)c(-c4cnc(C(F)(F)F)nc4)cc23)c(C(=O)O)n1 [Example 375] |  |  |  |  | < 4.82 | < 4.82 | 6.30 to 9.00 | 6.30 to 9.00

Row | Compound | pEC50 ([1]; Homo sapiens, SK-BR-3, 72 h) | pIC50 ([2]; Homo sapiens, SK-BR-3, 6 h) | pEC50 ([3]; Homo sapiens, T47D, 72 h) | pIC50 ([4]; Homo sapiens, T47D, 6 h) | pEC50 ([1]; 72 hours) | pIC50 ([2]; 6 hours) | pEC50 ([3]; 72 hours) | pIC50 [4]
21 | Cc1cc([C@@H](C)Nc2ccc(Cl)nc2C(=O)O)c2cc(-c3cnc(C(F)(F)F)nc3)n(C)c(=O)c2c1 [Example 376] | < 4.82 | 4.82 to 5.70 | 6.30 to 9.00 | 6.30 to 9.00 |  |  |  | 
22 | Cc1cc([C@@H](C)Nc2cnc(Cl)nc2C(=O)O)c2cc(N3CCN(CC(F)(F)F)CC3)n(C)c(=O)c2c1 [Example 377] |  |  |  |  | < 4.82 | < 4.82 | 4.82 to 5.70 | 4.82 to 5.70
23 | C[C@@H](Nc1ccccc1C(=O)O)c1cc(F)cc2c(=O)n(C)c(-c3cnc(-c4ccc(F)cn4)c(F)c3)cc12 [Example 378] | < 4.82 | < 4.82 | 6.30 to 9.00 | 6.30 to 9.00 |  |  |  | 
24 | C[C@@H](Nc1cccc(F)c1C(=O)O)c1cc(F)cc2c(=O)n(C)c(-c3ccc(OC4CC4)nc3)cc12 [Example 379] | < 4.82 | < 4.82 | 6.30 to 9.00 | 6.30 to 9.00 |  |  |  | 
25 | Cc1cc([C@@H](C)Nc2ccccc2C(=O)O)c2cc(N3CCN(c4ccc(CF)nc4)CC3)n(C)c(=O)c2c1 [Example 381] |  |  |  |  | 4.82 to 5.70 | 4.82 to 5.70 | 6.30 to 9.00 | 6.30 to 9.00
26 | Cc1cc([C@@H](C)Nc2ccccc2C(=O)O)c2cc(-c3cnc(C(F)(F)F)cn3)n(C)c(=O)c2c1 [Example 382] | < 4.82 | < 4.82 | 6.30 to 9.00 | 6.30 to 9.00 |  |  |  | 
27 | Cc1cc([C@@H](C)Nc2ccccc2C(=O)O)c2cc(-c3ncc(C(F)(F)F)cn3)n(C)c(=O)c2c1 [Example 383] | < 4.82 | < 4.82 | 6.30 to 9.00 | 6.30 to 9.00 |  |  |  | 
28 | Cc1cc([C@@H](C)Nc2ccc(F)nc2C(=O)O)c2cc(-c3cnc(C(F)(F)F)nc3)n(C)c(=O)c2c1 [Example 387] |  |  |  |  | < 4.82 | < 4.82 | 6.30 to 9.00 | 5.70 to 6.30
29 | CC(Nc1cccc(F)c1C(=O)O)c1cc(F)cc2c(=O)n(C)c(-c3cnc(OC4CC(F)C4)c(F)c3)cc12 (stereo not shown) [Example 388] |  |  |  |  | < 4.82 | < 4.82 | 6.30 to 9.00 | 6.30 to 9.00
30 | C[C@@H](Nc1cccc(F)c1C(=O)O)c1cc(F)cc2c(=O)n(C)c(-c3cnc(OC4CC4)c(F)c3)cc12 [Example 390] |  |  |  |  | < 4.82 | < 4.82 | 6.30 to 9.00 | 6.30 to 9.00
31 | Cc1cc([C@@H](C)Nc2ccccc2C(=O)O)c2cc(-c3cnc(CF)cn3)n(C)c(=O)c2c1 [Example 393] | < 4.82 | < 4.82 | 6.30 to 9.00 | 6.30 to 9.00 |  |  |  | 
32 | Cc1cc([C@@H](C)Nc2ccccc2C(=O)O)c2cc(-c3cnc(OC4CC4)cn3)n(C)c(=O)c2c1 [Example 394] |  |  |  |  | < 4.82 | < 4.82 | 6.30 to 9.00 | 6.30 to 9.00
33 | Cc1cc([C@@H](C)Nc2ccccc2C(=O)O)c2cc(-c3cnc(C(C)(F)F)cn3)n(C)c(=O)c2c1 [Example 395] |  |  |  |  | < 4.82 | < 4.82 | 6.30 to 9.00 | 6.30 to 9.00
34 | Cc1cc([C@@H](C)Nc2ccccc2C(=O)O)c2cc(-c3ccc(C(F)(F)F)cn3)n(C)c(=O)c2c1 [Example 396] | < 4.82 | < 4.82 | 6.30 to 9.00 | 6.30 to 9.00 |  |  |  | 
35 | Cc1ncncc1N1CCN(c2cc3c([C@@H](C)Nc4cccc(F)c4C(=O)O)cc(F)cc3c(=O)n2C)CC1 [Example 397] |  |  |  |  | < 4.82 | < 4.82 | 6.30 to 9.00 | 5.70 to 6.30
36 | C[C@@H](Nc1cccc(F)c1C(=O)O)c1cc(F)cc2c(=O)n(C)c(N3C4CCC3CN(CC(F)(F)F)C4)cc12 [Example 398] | < 4.82 | 4.82 to 5.70 | 6.30 to 9.00 | 6.30 to 9.00 |  |  |  | 
37 | Cc1cc([C@@H](C)Nc2ccccc2C(=O)O)c2cc(Cl)n(C)c(=O)c2c1 [Example 400] | < 4.82 | < 4.82 | 5.70 to 6.30 | 5.70 to 6.30 |  |  |  | 
38 | Cc1ncc(-c2ncc(-c3cc4c([C@@H](C)Nc5cccc(F)c5C(=O)O)cc(F)cc4c(=O)n3C)cc2F)cc1F [Example 403] | < 4.82 | < 4.82 | 6.30 to 9.00 | 6.30 to 9.00 |  |  |  | 
39 | C[C@@H](Nc1cccc(F)c1C(=O)O)c1cc(F)cc2c(=O)n(C)c(-c3cnc(-c4cncc(F)c4)c(F)c3)cc12 [Example 404] | < 4.82 | < 4.82 | 6.30 to 9.00 | 6.30 to 9.00 |  |  |  | 
40 | Cc1cc([C@@H](C)Nc2ccccc2C(=O)O)c2cc(N3CC(CC(F)(F)F)C3)n(C)c(=O)c2c1 [Example 405] | < 4.82 | < 4.82 | 5.70 to 6.30 | 6.30 to 9.00 |  |  |  | 
